The test system of this test is Experimental Allergic Encephalomyelitis (EAE). The test is described as follows: Experimental Allergic Encephalomyelitis (EAE) model of multiple sclerosis. The settings on record: mice, MOG35-55-induced EAE, 30 mg/Kg twice daily for 35 days. It counts as in vivo. As for the experimental part:
EAE was induced in two groups, each of 10 mice, by subcutaneous injection into the flank of 150 μg of the encephalitogenic peptide MOG35-55 ([…]; Auspep, Melbourne, Australia) emulsified in complete Freund's adjuvant (Difco, Detroit, U.S.A.), supplemented with 4 mg/mL of Mycobacterium tuberculosis, followed by intravenous injection of 350 ng of pertussis vaccine (List Biological Laboratories, Campbell, U.S.A.), with the pertussis vaccine injection repeated after 48 hours.
Compound 1 was dissolved in 3% aqueous Tween 80 at 4mg/mL and stored at 4° C. Starting on the day of immunization with MOG35-55, the mice were treated twice daily with 30 mg/Kg of compound 1 or an equal volume of water for the 35 day duration of the experiment.
The mice were monitored daily and neurological impairment was quantified on an arbitrary scale: 0, no detectable impairment; 1, flaccid tail; 2, hind limb weakness; 3, hind limb paralysis; 4, hind limb paralysis and ascending paralysis; 5, moribund or dead.
At the end of the experiment, the mice were killed and hematoxylin and eosin stained sections of brain and spinal cord were scored blindly by two independent investigators using the following scale: 0, no inflammation; 1, few very small cellular infiltrate in the perivascular areas and meninges; 2, mild cellular infiltrate; 3, moderate cellular infiltrate; 4, severe cellular infiltrate; 5, very large and extensive cellular infiltrate.

Setting [1] is: neurological impairment scale 0-5.

Each structure is given as a SMILES string.

Take `Cc1nn(C)c2nc(OCCN3CCCC3)c(C(=O)NC(=O)Nc3cccc(OC(C)C)c3)cc12.Cl` [Compound 1, 1-{1,3-dimethyl-6-[2-(pyrrolidin-1-yl)ethoxy]-1H-pyrazolo[3,4-b]pyridine-5-carbonyl}-3-(3-isopropoxyphenyl)urea hydrochloride]: the “Mean onset” value is reported as 17.2 days. For the same compound, the EAE incidence (affected/total) is recorded as 5/10. Under setting [1], this compound came in with a Mean cumulative score of 7.25 and a Mean maximum score of 1.4.

(Values after patent US6962926B2, “Antagonist of MCP-1 function, and compositions and methods of use thereof” (Telik, Inc., priority 2001, dated 2005).)
